Reference: ChEMBL document CHEMBL4837181 (Eur J Med Chem, 2020)
Activity calls are given as the source filed them. The rule behind the calls is not given here.

Tests used:
[1] = Change in normalised Cmax in rat at 50 mg/kg, po measured upto 72 hrs by LC-MS/MS analysis; format: ADME, organism-based; conditions: in vivo
[2] = Chemical stability of compound in simulated intestinal fluid assessed as compound remaining at 5 uM measured after 3 hrs by LC-MS/MS analysis; format: ADME, physicochemical; conditions: read-out: Stabilty
[3] = Change in normalised AUC (infinity) in rat at 50 mg/kg, po measured upto 72 hrs by LC-MS/MS analysis; format: ADME, organism-based; conditions: in vivo
[4] = Stability in human plasma assessed as parent compound remaining measured after 6 hrs by LC-MS/MS analysis; format: ADME, cell-free; conditions: read-out: Stabilty
[5] = Dose normalized AUC (0 to infinity) in rat at 10 mg/kg, po measured upto 72 hrs by LC-MS/MS analysis; format: ADME, organism-based; conditions: in vivo
[6] = Change in normalised AUCinfinity in rat at 10 mg/kg, po measured upto 72 hrs by LC-MS/MS analysis; format: ADME, organism-based; conditions: in vivo
[7] = Dose normalized Cmax in rat at 50 mg/kg, po measured upto 72 hrs by LC-MS/MS analysis; format: ADME, organism-based; conditions: in vivo
[8] = Chemical stability of compound in simulated gastric fluid assessed as compound remaining at 5 uM measured after 1.5 hrs by LC-MS/MS analysis; format: ADME, physicochemical; conditions: read-out: Stabilty
[9] = Dose normalized AUC (0 to infinity) in rat at 50 mg/kg, po measured upto 72 hrs by LC-MS/MS analysis; format: ADME, organism-based; conditions: in vivo
[10] = Chemical stability of compound in simulated gastric fluid assessed as compound remaining at 5 uM measured after 24 hrs by LC-MS/MS analysis; format: ADME, physicochemical; conditions: read-out: Stabilty
[11] = Change in normalised Cmax in rat at 10 mg/kg, po measured upto 72 hrs by LC-MS/MS analysis; format: ADME, organism-based; conditions: in vivo
[12] = Chemical stability of compound in PBS buffer assessed as compound remaining at pH 7.4 at 5 uM measured after 24 hrs by LC-MS/MS analysis; format: physicochemical; conditions: read-out: Stabilty
[13] = Stability in mouse plasma assessed as parent compound remaining measured after 2 hrs by LC-MS/MS analysis; format: ADME, cell-free; conditions: read-out: Stabilty
[14] = Chemical stability of compound in simulated intestinal fluid assessed as compound remaining at 5 uM measured after 24 hrs by LC-MS/MS analysis; format: ADME, physicochemical; conditions: read-out: Stabilty
[15] = Dose normalized Cmax in rat at 10 mg/kg, po measured upto 72 hrs by LC-MS/MS analysis; format: ADME, organism-based; conditions: in vivo
[16] = Chemical stability of compound in saline assessed as compound remaining at 5 uM measured after 24 hrs by LC-MS/MS analysis; format: physicochemical; conditions: read-out: Stabilty
[17] = Chemical stability of compound in 0.1 N aqueous HCl buffer assessed as compound remaining at pH 1 at 5 uM measured after 1.5 hrs by LC-MS/MS analysis; format: physicochemical; conditions: pH 1, 1.5 h
[18] = Stability in rat plasma assessed as parent compound remaining measured after 2 hrs by LC-MS/MS analysis; format: ADME, cell-free; conditions: read-out: Stabilty
[19] = Chemical stability of compound in PBS buffer assessed as compound remaining at pH 7.4 at 5 uM measured after 6 hrs by LC-MS/MS analysis; format: physicochemical; conditions: read-out: Stabilty
[20] = Stability in human plasma assessed as parent compound remaining measured after 24 hrs by LC-MS/MS analysis; format: ADME, cell-free; conditions: read-out: Stabilty
[21] = Chemical stability of compound in 0.1 N aqueous HCl buffer assessed as compound remaining at pH 1 at 5 uM measured after 24 hrs by LC-MS/MS analysis; format: physicochemical; conditions: pH 1, 24 h
[22] = Change in Cmax in rat at 37 umol/kg, po measured upto 72 hrs by LC-MS/MS analysis; format: ADME, organism-based; conditions: in vivo, at 37 µmol/kg
[23] = Change in Cmax in rat at 185 umol/kg, po measured upto 72 hrs by LC-MS/MS analysis; format: ADME, organism-based; conditions: in vivo, at 185 µmol/kg
[24] = Change in AUC (infinity) in rat at 37 umol/kg, po measured upto 72 hrs by LC-MS/MS analysis; format: ADME, organism-based; conditions: in vivo, at 37 µmol/kg
[25] = Change in Cmax in cynomolgus monkey at 825 umol/kg, po measured after 0.083 to 48 hrs by LC-MS/MS analysis; format: ADME, organism-based, Macaca fascicularis; conditions: in vivo, at 825 µmol/kg, time 0.083-48 hrs
[26] = Change in AUC(infinity) in rat at 500 umol/kg, po measured upto 72 hrs by LC-MS/MS analysis; format: ADME, organism-based; conditions: in vivo, at 500 µmol/kg
[27] = Change in Cmax in cynomolgus monkey at 275 umol/kg, po measured after 0.083 to 48 hrs by LC-MS/MS analysis; format: ADME, organism-based, Macaca fascicularis; conditions: in vivo, at 275 µmol/kg, time 0.083-48 hrs
[28] = Change in AUC(infinity) in cynomolgus monkey at 92 umol/kg, po measured after 0.083 to 48 hrs by LC-MS/MS analysis; format: ADME, organism-based, Macaca fascicularis; conditions: in vivo, at 92 µmol/kg, time 0.083-48 hrs
[29] = Change in Cmax in rat at 500 umol/kg, po measured upto 72 hrs by LC-MS/MS analysis; format: ADME, organism-based; conditions: in vivo, at 500 µmol/kg
[30] = Change in AUC(infinity) in cynomolgus monkey at 825 umol/kg, po measured after 0.083 to 48 hrs by LC-MS/MS analysis; format: ADME, organism-based, Macaca fascicularis; conditions: in vivo, at 825 µmol/kg, time 0.083-48 hrs
[31] = Change in AUC(infinity) in cynomolgus monkey at 275 umol/kg, po measured after 0.083 to 48 hrs by LC-MS/MS analysis; format: ADME, organism-based, Macaca fascicularis; conditions: in vivo, at 275 µmol/kg, time 0.083-48 hrs
[32] = Change in Cmax in cynomolgus monkey at 92 umol/kg, po measured after 0.083 to 48 hrs by LC-MS/MS analysis; format: ADME, organism-based, Macaca fascicularis; conditions: in vivo, at 92 µmol/kg, time 0.083-48 hrs
B16-F10 = assay: Antitumor activity against mouse B16-F10 cells implanted in C57BL/6 mouse assessed as reduction in tumor size at >= 287 micromol/kg, po BID administered from day 6 to day 11 and measured on day 11 by caliper method; format: functional, organism-based; conditions: dose micromol/kg >=287

## CCOC(=O)[C@H](N)Cc1cn(C)c2ccccc12.Cl
[1]
  Activity: 143%
[2]
  remaining at 3 h, 5 µM: 64%
[3]
  Activity: 126%
[4]
  remaining at 6 h: 93%
[5]
  AUC/dose: 454 µM·h
[6]
  Activity: -11%
[7]
  Cmax/dose: 66 µM
[8]
  remaining at 1.5 h, 5 µM: 83%
[9]
  AUC/dose: 2988 µM·h
[10]
  remaining at 24 h, 5 µM: 85%
[11]
  Activity: 27%
[12]
  remaining at 24 h, 5 µM: 52%
[13]
  remaining at 2 h: 0%
[14]
  remaining at 24 h, 5 µM: 0%
[15]
  Cmax/dose: 22 µM
[16]
  remaining at 24 h, 5 µM: 100%
[17]
  Stabilty: 59%
[18]
  remaining at 2 h: 0%
[19]
  remaining at 6 h, 5 µM: 94%
[20]
  remaining at 24 h: 35%
[21]
  Stabilty: 100%

## CCOC(=O)N[C@H](Cc1cn(C)c2ccccc12)C(=O)O
[1]
  Activity: -78%
[3]
  Activity: -83%
[7]
  Cmax/dose: 6 µM
[9]
  AUC/dose: 229 µM·h
[13]
  remaining at 2 h: 97%
[18]
  remaining at 2 h: 100%

## CCOC(=O)[C@@H](Cc1cn(C)c2ccccc12)NC(=O)[C@@H](N)CCSC.O=P(O)(O)O
[22]
  Activity: 32%
[23]
  Activity: 49%
[24]
  Activity: 2%

## Cn1cc(C[C@@H](NC(=O)OCC(C)(C)C)C(=O)O)c2ccccc21
[1]
  Activity: -99%
[3]
  Activity: -100%
[7]
  Cmax/dose: 0.15 µM
[9]
  AUC/dose: 5.5 µM·h
[13]
  remaining at 2 h: 100%
[18]
  remaining at 2 h: 100%

## CCOC(=O)[C@@H](Cc1cn(C)c2ccccc12)NC(=O)[C@@H](N)CCSC.Cl
[25]
  Activity: 411%
[26]
  Activity: 49%
[27]
  Activity: 402%
[28]
  Activity: 136%
[29]
  Activity: 59%
[30]
  Activity: 369%
[22]
  Activity: 21%
[23]
  Activity: 152%
[31]
  Activity: 393%
[24]
  Activity: 13%
[32]
  Activity: 305%

## CC(C)OC(=O)[C@H](N)Cc1cn(C)c2ccccc12.Cl
[1]
  Activity: 4%
[3]
  Activity: -21%
[7]
  Cmax/dose: 28 µM
[9]
  AUC/dose: 1051 µM·h
[13]
  remaining at 2 h: 0%
[18]
  remaining at 2 h: 0%

## CCOC(=O)[C@@H](Cc1cn(C)c2ccccc12)NC(=O)[C@@H](N)CC(C)C.O=P(O)(O)O
[22]
  Activity: 84%
[23]
  Activity: 69%
[24]
  Activity: 61%

## CCOC(=O)[C@@H](Cc1cn(C)c2ccccc12)NC(=O)[C@@H](N)CC(C)C
B16-F10
  Activity: Active

## Cl.Cn1cc(C[C@@H](N)C(=O)OCC2CCNCC2)c2ccccc21
[2]
  remaining at 3 h, 5 µM: 45%
[4]
  remaining at 6 h: 44%
[5]
  AUC/dose: 889 µM·h
[6]
  Activity: 75%
[8]
  remaining at 1.5 h, 5 µM: 75%
[10]
  remaining at 24 h, 5 µM: 73%
[11]
  Activity: 24%
[12]
  remaining at 24 h, 5 µM: 12%
[22]
  Activity: -69%
[13]
  remaining at 2 h: 0%
[14]
  remaining at 24 h, 5 µM: 3%
[15]
  Cmax/dose: 21.5 µM
[16]
  remaining at 24 h, 5 µM: 23%
[17]
  Stabilty: 36%
[24]
  Activity: -54%
[18]
  remaining at 2 h: 19%
[19]
  remaining at 6 h, 5 µM: 92%
[20]
  remaining at 24 h: 2%
[21]
  Stabilty: 23%

## Cn1cc(C[C@@H](N)C(=O)OCC(O)CO)c2ccccc21.O=P(O)(O)O (some centres undefined)
[22]
  Activity: 37%
[23]
  Activity: 153%
[24]
  Activity: 46%

## Cl.Cn1cc(C[C@@H](N)C(=O)OCc2ccccc2)c2ccccc21
[1]
  Activity: 4%
[3]
  Activity: -22%
[7]
  Cmax/dose: 28 µM
[9]
  AUC/dose: 1028 µM·h
[13]
  remaining at 2 h: 0%
[18]
  remaining at 2 h: 0%

## Cl.Cn1cc(C[C@@H](N)C(=O)OCC(O)CO)c2ccccc21 (some centres undefined)
[2]
  remaining at 3 h, 5 µM: 34%
[4]
  remaining at 6 h: 33%
[5]
  AUC/dose: 595 µM·h
[6]
  Activity: 17%
[8]
  remaining at 1.5 h, 5 µM: 62%
[10]
  remaining at 24 h, 5 µM: 58%
[11]
  Activity: 92%
[12]
  remaining at 24 h, 5 µM: 29%
[22]
  Activity: 28%
[13]
  remaining at 2 h: 0%
[14]
  remaining at 24 h, 5 µM: 10%
[15]
  Cmax/dose: 33.3 µM
[16]
  remaining at 24 h, 5 µM: 99%
[17]
  Stabilty: 37%
[24]
  Activity: 21%
[18]
  remaining at 2 h: 0%
[19]
  remaining at 6 h, 5 µM: 50%
[20]
  remaining at 24 h: 11%
[21]
  Stabilty: 99%
